From BindingDB's records for doi:10.1016/S0960-894X(01)80278-X (n/a, 1994)
Starred links: 1 amine or outer side, 2 acyl side, 3 side chain; linkers in the order of their positions; H or OH if unused. Non-standard residues stand in square brackets, D forms with d. Residues, ends and D or L forms follow the SMILES beside them. *: point of attachment. X2 = C=CCN([C@@H](C)C(=O)[*:2])[*:1]; X1 = O=C(CN(CC(Br)CBr)[*:1])[*:2]; X3 = O=C(CN(CC(Cl)CCl)[*:1])[*:2]; NAllylGly = C=CCNCC(=O)O; Boc = CC(C)(C)OC(=O)*

Assay: Antiviral activity against HIV-1 in CEM cells

SMILES	IC50
CC[C@H](C)[C@H](NC(=O)CN(CC(Cl)CCl)C(=O)[C@H](Cc1ccccc1)NC(=O)[C@H](C)NC(=O)OC(C)(C)C)C(=O)N[C@H](C(=O)OC)C(C)C (stereo not given in full) (Boc-AF[X3]IV-OMe)	> 136 µM
C=CCN(CC(=O)N[C@H](C(=O)N[C@H](C(=O)OC)C(C)C)[C@@H](C)CC)C(=O)[C@H](Cc1ccccc1)NC(=O)OC(C)(C)C (Boc-F[NAllylGly]IV-OMe)	> 169 µM
C=CCN(CC(=O)N[C@H](C(=O)N[C@H](C(=O)OC)C(C)C)[C@@H](C)CC)C(=O)[C@@H](N)Cc1ccccc1 (H-F[NAllylGly]IV-OMe)	> 204 µM
C=CCNCC(=O)N[C@H](C(=O)N[C@H](C(=O)OC)C(C)C)[C@@H](C)CC	> 195 µM
CC[C@H](C)[C@H](NC(=O)CN(CC(Br)CBr)C(=O)[C@H](Cc1ccccc1)NC(=O)[C@H](C)NC(=O)OC(C)(C)C)C(=O)N[C@H](C(=O)OC)C(C)C (stereo not given in full) (Boc-AF[X1]IV-OMe)	> 610 µM
C=CCN(C(=O)[C@H](Cc1ccccc1)NC(=O)[C@H](C)NC(=O)[C@H](C)NC(=O)OC(C)(C)C)[C@@H](C)C(=O)N[C@H](C(=O)N[C@H](C(=O)OC)C(C)C)[C@@H](C)CC (Boc-AAF[X2]IV-OMe)	3.89 µM
C=CCN(CC(=O)N[C@H](C(=O)N[C@H](C(=O)OC)C(C)C)[C@@H](C)CC)C(=O)[C@H](Cc1ccccc1)NC(=O)[C@H](C)NC(=O)[C@H](C)NC(=O)[C@H](CO)NC(=O)OC(C)(C)C (Boc-SAAF[NAllylGly]IV-OMe)	> 24.4 µM
C=CCN(C(=O)[C@H](Cc1ccccc1)NC(=O)[C@H](C)NC(=O)OC(C)(C)C)[C@@H](C)C(=O)N[C@H](C(=O)N[C@H](C(=O)OC)C(C)C)[C@@H](C)CC (Boc-AF[X2]IV-OMe)	> 296 µM
CC[C@H](C)[C@H](NC(=O)CN(CC(Cl)CCl)C(=O)[C@H](Cc1ccccc1)NC(=O)OC(C)(C)C)C(=O)N[C@H](C(=O)OC)C(C)C (stereo not given in full)	> 50.4 µM
C=CCN(C(=O)[C@H](Cc1ccccc1)NC(=O)OC(C)(C)C)[C@@H](C)C(=O)N[C@H](C(=O)N[C@H](C(=O)OC)C(C)C)[C@@H](C)CC	> 16.5 µM
CC[C@H](C)[C@H](NC(=O)CN(CC(Br)CBr)C(=O)[C@H](Cc1ccccc1)NC(=O)OC(C)(C)C)C(=O)N[C@H](C(=O)OC)C(C)C (stereo not given in full)	56.7 µM
C=CCN(CC(=O)N[C@H](C(=O)N[C@H](C(=O)OC)C(C)C)[C@@H](C)CC)C(=O)OC(C)(C)C	> 226 µM
C=CCN(C(=O)[C@H](Cc1ccccc1)NC(=O)[C@H](C)NC(=O)[C@H](C)NC(=O)[C@H](CO)NC(=O)OC(C)(C)C)[C@@H](C)C(=O)N[C@H](C(=O)N[C@H](C(=O)OC)C(C)C)[C@@H](C)CC (Boc-SAAF[X2]IV-OMe)	> 120 µM
C=CCN(CC(=O)N[C@H](C(=O)N[C@H](C(=O)OC)C(C)C)[C@@H](C)CC)C(=O)[C@H](Cc1ccccc1)NC(=O)[C@H](C)NC(=O)OC(C)(C)C (Boc-AF[NAllylGly]IV-OMe)	54.1 µM
C=CCN(CC(=O)N[C@H](C(=O)N[C@H](C(=O)OC)C(C)C)[C@@H](C)CC)C(=O)[C@H](Cc1ccccc1)NC(=O)[C@H](C)N (H-AF[NAllylGly]IV-OMe)	> 178 µM
